Laboratory results from patent publication US8173689B2 (Novartis AG, priority 2006, dated 2012).
Like-named read-outs stand apart in the source and are kept apart here.

Experiments:
[1] = target: T1, full-length human CSF-1R receptor (Homo sapiens, UniProt P07333); experiment: In vitro inhibition of CSF-1R receptor tyrosine phosphorylation in transfected HEK293H cells stimulated with MCSF; format: cell-based; conditions: HEK293-H, tested at about 1 μM, read-out: pCSF1R percent inhibition
T1 construct: transfected with the full-length human CSF-1R receptor cloned in house; expressed in transfected cells; host or cells: HEK293H (Invitrogen Cat. #11631017)
T1 sequence (P07333 20-972): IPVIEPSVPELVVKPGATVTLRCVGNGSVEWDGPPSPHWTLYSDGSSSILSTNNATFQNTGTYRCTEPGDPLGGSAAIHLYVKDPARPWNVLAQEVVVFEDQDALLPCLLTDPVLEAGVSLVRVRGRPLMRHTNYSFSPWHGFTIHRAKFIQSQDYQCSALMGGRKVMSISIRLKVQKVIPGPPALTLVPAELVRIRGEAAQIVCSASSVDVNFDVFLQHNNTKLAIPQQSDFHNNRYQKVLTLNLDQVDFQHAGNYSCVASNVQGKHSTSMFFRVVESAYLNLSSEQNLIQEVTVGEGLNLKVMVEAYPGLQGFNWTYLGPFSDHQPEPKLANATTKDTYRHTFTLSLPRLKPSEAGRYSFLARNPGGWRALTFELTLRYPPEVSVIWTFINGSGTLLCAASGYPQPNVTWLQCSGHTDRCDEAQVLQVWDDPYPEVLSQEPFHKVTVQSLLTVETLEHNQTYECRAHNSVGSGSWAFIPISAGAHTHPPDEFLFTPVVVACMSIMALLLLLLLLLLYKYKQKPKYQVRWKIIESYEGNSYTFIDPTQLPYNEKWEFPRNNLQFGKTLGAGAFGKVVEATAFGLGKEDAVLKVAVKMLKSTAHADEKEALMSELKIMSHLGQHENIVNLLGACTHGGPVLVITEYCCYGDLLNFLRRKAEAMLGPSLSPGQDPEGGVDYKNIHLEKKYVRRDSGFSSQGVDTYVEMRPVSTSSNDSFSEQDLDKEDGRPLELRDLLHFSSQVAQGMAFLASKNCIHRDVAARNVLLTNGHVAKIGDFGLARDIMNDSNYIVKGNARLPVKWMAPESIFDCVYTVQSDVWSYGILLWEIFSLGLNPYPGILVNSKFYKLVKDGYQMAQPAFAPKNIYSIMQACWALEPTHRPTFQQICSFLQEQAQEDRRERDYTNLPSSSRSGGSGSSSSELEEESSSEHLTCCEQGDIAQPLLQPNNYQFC
Protocol: The lysate was then transferred to total CSF-1R antibody coated 96-well plates that had already been blocked with 3% Blocker A from Mesoscale discovery (MSD) for 2 hours and washed afterwards. Lysates were incubated overnight at 4° C. and the plates were then washed 4× with MSD Tris Wash Buffer. […] The plates were read on the Sector 6000 instrument (MSD). Raw data was imported in Abase and EC50s calculated with XL-fit data analysis software.

[2] = system: MNFS60 (murine AML cells); experiment: Cell viability assay in MCSF dependent MNFS60 cells (Cell Titer Glo); format: cell-based; conditions: Mus musculus, tested at about 1 μM, read-out: M-NFS-60 CP percent inhibition
In short: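 EC50 values reflect MCSF-driven (10 ng/ml final) proliferation over 72 hrs at 37° C., read by CellTiter-Glo. Each condition was run in triplicate.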

kinase domain of cKIT = target: T2, kinase domain of cKIT (Homo sapiens, UniProt P10721); experiment: Inhibition of cKIT kinase signaling in an in vitro biochemical assay (alphascreen); conditions: tested at about 1 μM, read-out: cKit percent inhibition
T2 construct: The kinase domain of cKIT was assayed in 50 mM Hepes; purchased Upstate 14-559
T2 sequence (P10721 589-937 limits assumed): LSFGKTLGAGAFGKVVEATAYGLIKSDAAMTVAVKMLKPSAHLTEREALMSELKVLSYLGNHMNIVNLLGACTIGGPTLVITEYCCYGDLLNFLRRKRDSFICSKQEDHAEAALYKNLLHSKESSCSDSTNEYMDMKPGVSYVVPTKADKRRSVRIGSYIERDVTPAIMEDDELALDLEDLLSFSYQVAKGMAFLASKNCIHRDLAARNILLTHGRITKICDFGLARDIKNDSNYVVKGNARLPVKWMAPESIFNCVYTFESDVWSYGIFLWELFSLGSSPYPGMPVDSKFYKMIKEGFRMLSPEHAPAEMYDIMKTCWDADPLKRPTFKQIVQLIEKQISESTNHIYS

[3] = target: T3, cytoplasmic domain of the human CSF-1R (Homo sapiens, UniProt P07333); experiment: In vitro kinase assay for colony stimulating factor-1 receptor (AlphaScreen); format: biochemical; conditions: tested at about 1 μM, read-out: CSF-1R percent inhibition
T3 construct: Recombinant protein corresponding to the cytoplasmic domain of the human CSF-1R; purchased Invitrogen Corporation, Carlsbad, Calif; PV3249
T3 sequence (P07333 539-972 limits assumed): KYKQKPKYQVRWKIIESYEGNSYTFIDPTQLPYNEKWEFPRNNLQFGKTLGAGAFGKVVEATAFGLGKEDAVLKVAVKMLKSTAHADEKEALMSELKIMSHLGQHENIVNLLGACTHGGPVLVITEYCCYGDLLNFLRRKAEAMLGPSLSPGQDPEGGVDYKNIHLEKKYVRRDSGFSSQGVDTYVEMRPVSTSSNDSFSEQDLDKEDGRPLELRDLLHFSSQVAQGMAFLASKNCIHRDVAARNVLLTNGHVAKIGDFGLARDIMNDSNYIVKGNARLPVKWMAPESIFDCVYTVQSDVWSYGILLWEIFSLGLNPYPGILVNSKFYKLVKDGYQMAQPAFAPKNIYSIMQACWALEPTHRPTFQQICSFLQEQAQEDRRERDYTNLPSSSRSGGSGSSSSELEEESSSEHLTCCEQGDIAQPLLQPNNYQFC
In short: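 AlphaScreen read-out (PT66 anti-pTyr acceptor beads, streptavidin donor beads, overnight incubation) measured phosphorylated peptide product. The product was formed by the human CSF-1R cytoplasmic domain at 4 nM with 1 µM ATP in Mg2+/Mn2+ HEPES buffer, pH 7.5. Compound dilution series were 3-fold, starting at 25 µM.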

kinase domain of PDGFRβ = target: T4, kinase domain of PDGFRβ (Homo sapiens, UniProt P09619); experiment: Inhibition of PDGFRb kinase signaling in an in vitro biochemical assay (alphascreen); conditions: tested at about 1 μM, read-out: PDGFRβ percent inhibition
T4 construct: The kinase domain of PDGFRβ was assayed in 50 mM Hepes; purchased Invitrogen P3082
T4 sequence (P09619 600-962 limits assumed): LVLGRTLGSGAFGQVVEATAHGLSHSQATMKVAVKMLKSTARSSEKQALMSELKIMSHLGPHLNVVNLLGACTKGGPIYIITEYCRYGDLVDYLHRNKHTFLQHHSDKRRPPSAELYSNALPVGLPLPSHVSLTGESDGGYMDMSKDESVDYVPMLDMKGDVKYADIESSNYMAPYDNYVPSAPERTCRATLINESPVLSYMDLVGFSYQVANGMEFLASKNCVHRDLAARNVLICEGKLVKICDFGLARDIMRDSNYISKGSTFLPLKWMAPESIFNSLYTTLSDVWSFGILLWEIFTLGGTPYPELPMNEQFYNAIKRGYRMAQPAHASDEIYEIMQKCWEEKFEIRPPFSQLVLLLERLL

Row | SMILES | inhibition at 1 µM ([1]; HEK293H cells) | inhibition at 1 µM (kinase domain of cKIT) | inhibition at 1 µM [3] | inhibition at 1 µM (kinase domain of PDGFRβ) | inhibition at 1 µM ([1]; compounds of Table 3) | inhibition at 1 µM (kinase domain of cKIT; compounds of Table 3) | inhibition at 1 µM ([3]; compounds of Table 3) | inhibition at 1 µM (kinase domain of PDGFRβ; compounds of Table 3) | inhibition at 1 µM ([2]; MNFS60 cells) | inhibition at 1 µM ([2]; compounds of Table 3) | other results
1 | Cn1cc(-c2cc(Oc3ccc4nc(NCC5CCCCC5)sc4c3)ccn2)cn1 [Example 340, N-(cyclohexylmethyl)-6-(2-(1-methyl-1H-pyrazol-4-yl)pyridin-4-yloxy)benzo[d]thiazol-2-amine] | 96% | 100% | 100% | 98% | – | – | – | – | – | – | inhibition at 1 µM ([2]; MCSF dependent MNFS60 cells): 100%
2 | COc1ccc(-c2cc(Oc3ccc4nc(N[C@@H]5CCCC[C@H]5O)sc4c3)ccn2)cn1 [Cmpd 170, (1R,2R)-2-(6-(6'-methoxy-2,3'-bipyridin-4-yloxy)benzo[d]thiazol-2-ylamino)cyclohexanol] | – | – | – | – | 96% | 28% | 100% | 23% | – | 100% | –
3 | CC(C)C[C@H](CO)Nc1nc2ccc(Oc3ccnc4ccccc34)cc2s1 [Example 245, (R)-4-methyl-2-(6-(quinolin-4-yloxy)benzo[d]thiazol-2-ylamino)pentan-1-ol] | – | – | – | – | 81% | 16% | 100% | 21% | – | 53% | –
4 | CNC(=O)c1cc(Oc2ccc3nc(NC4CCCC(C)C4)sc3c2)ccn1 (stereo not shown) [Compound 136, 4-[2-(3-Methyl-cyclohexyl-amino)-benzothiazol-6-yloxy]-pyridine-2-carboxylic acid methylamide] | 97% | 88% | 100% | 84% | – | – | – | – | 100% | – | –
5 | CCc1nc(-c2cc(Oc3ccc4nc(N[C@@H]5CCCC[C@H]5O)sc4c3)ccn2)[nH]c1CC [Example 266, (1R,2R)-2-(6-(2-(4,5-diethyl-1H-imidazol-2-yl)pyridin-4-yloxy)benzo[d]thiazol-2-ylamino)cyclohexanol] | – | – | – | – | 94% | 18% | 100% | 21% | – | 100% | –
6 | C[C@H](Nc1nc2ccc(Oc3ccnc(-c4ccc(N)nc4)c3)cc2s1)C1CCCCC1 [Example 276, (S)-6-(6'-amino-2,3'-bipyridin-4-yloxy)-N-(1-cyclohexylethyl)benzo[d] thiazol-2-amine] | – | – | – | – | 97% | 39% | 100% | 26% | – | 100% | –
7 | Cc1c[nH]c(-c2cc(Oc3ccc4nc(N[C@@H](C)C5CCCCC5)sc4c3)ccn2)n1 [Example 268, (S)-N-(1-cyclohexylethyl)-6-(2-(4-methyl-1H-imidazol-2-yl)pyridin-4-yloxy)benzo[d]thiazol-2-amine] | – | – | – | – | 87% | 25% | 100% | 29% | – | 84% | –
8 | CC(C)(C)[C@@H](CO)Nc1nc2ccc(Oc3ccnc4ccccc34)cc2s1 [Example 248, (S)-3,3-dimethyl-2-(6-(quinolin-4-yloxy)benzo[d]thiazol-2-ylamino)butan-1-ol] | – | – | – | – | 39% | 33% | 100% | 41% | – | 51% | –
9 | CN(C)c1ncc(-c2cc(Oc3ccc4nc(N[C@@H]5CCCC[C@H]5O)sc4c3)ccn2)cn1 [Example 286, (1R,2R)-2-(6-(2-(2-(dimethylamino)pyrimidin-5-yl)pyridin-4-yloxy)benzo[d]thiazol-2-ylamino)cyclohexanol] | – | – | – | – | 94% | 23% | 100% | 0% | – | 71% | –

More lines, main results first:

Row | inhibition at 1 µM ([1]; HEK293H cells) | inhibition at 1 µM (kinase domain of cKIT) | inhibition at 1 µM [3] | inhibition at 1 µM (kinase domain of PDGFRβ) | inhibition at 1 µM ([1]; compounds of Table 3) | inhibition at 1 µM (kinase domain of cKIT; compounds of Table 3) | inhibition at 1 µM ([3]; compounds of Table 3) | inhibition at 1 µM (kinase domain of PDGFRβ; compounds of Table 3) | SMILES | inhibition at 1 µM ([2]; MNFS60 cells) | inhibition at 1 µM ([2]; compounds of Table 3) | other results
10 | 87% | 34% | 99% | 1% | – | – | – | – | CNC(=O)c1cc(Oc2ccc3nc(NCc4ccccn4)sc3c2)ccn1 [Compound 150, 4-{2-[(Pyridin-2-ylmethyl)-amino]-benzothiazol-6-yloxy}-pyridine-2-carboxylic acid methylamide] | 49% | – | –
11 | 92% | 53% | 99% | 3% | – | – | – | – | CNC(=O)c1cc(Oc2ccc3nc(NCCc4ccccc4)sc3c2)ccn1 [Compound 133, 4-(2-Phenethylamino-benzo-thiazol-6-yloxy)-pyridine-2-carboxylic acid methylamide] | 45% | – | –
12 | 94% | 92% | 100% | 15% | – | – | – | – | CNC(=O)c1cc(Oc2ccc3nc(NCc4cccc(Cl)c4Cl)oc3c2)ccn1 [Compound 77, 4-[2-(2,3-Dichloro-benzylamino)-benzooxazol-6-yloxy]-pyridine-2-carboxylic acid methylamide] | 79% | – | –
13 | – | – | – | – | 65% | 15% | 100% | 2% | CNC(=O)c1cc(Oc2ccc3nc(NCc4ccc(=O)[nH]c4)sc3c2)ccn1 [Compound 89] | – | 15% | –
14 | 91% | 93% | 100% | 24% | – | – | – | – | CNC(=O)c1cc(Oc2ccc3nc(NCCc4ccccc4Cl)sc3c2)ccn1 [Example 319, 4-(2-(2-chlorophenylethylamino)benzo[d]thiazol-6-yloxy)-N-methylpicolinamide] | – | – | inhibition at 1 µM ([2]; MCSF dependent MNFS60 cells): 61%
15 | 84% | 99% | 99% | 5% | – | – | – | – | CNC(=O)c1cc(Oc2ccc3nc(NCc4ccccc4C(F)(F)F)oc3c2)ccn1 [Compound 97, 4-[2-(2-Trifluoromethyl-benzylamino)-benzooxazol-6-yloxy]-pyridine-2-carboxylic acid methylamide] | 67% | – | –
16 | 88% | 98% | 99% | 97% | – | – | – | – | CNC(=O)c1cc(Oc2ccc3nc(NCc4ccccc4N4CCOCC4)sc3c2)ccn1 [Compound 142, 4-[2-(2-Morpholin-4-yl-benzylamino)-benzothiazol-6-yloxy]-2-pyridine-2-carboxylic acid methylamide] | 100% | – | –
17 | 81% | 64% | 100% | 34% | – | – | – | – | CNC(=O)c1cc(Oc2ccc3nc(NCC4CCCCO4)sc3c2)ccn1 (stereo not shown) [Example 370, N-methyl-4-(2-((tetrahydro-2H-pyran-2-yl)methylamino)benzo[d]thiazol-6-yloxy)picolinamide] | – | – | inhibition at 1 µM ([2]; MCSF dependent MNFS60 cells): 60%
18 | – | – | 37% | 15% | 99% | 87% | 100% | 98% | CNC(=O)c1cc(Oc2ccc3nc(Nc4ccccc4CCN4CCCCC4)oc3c2)ccn1 [Compound 44, 4-{2-[2-(2-Piperidin-1-yl-ethyl)-phenylamino]-benzooxazol-6-yloxy}-pyridine-2-carboxylic acid methylamide] | – | 100% | inhibition at 1 µM ([1]; compounds of Table 4): 53%; inhibition at 1 µM ([2]; compounds of Table 4): 94%; inhibition at 1 µM (kinase domain of cKIT; compounds of Table 4): 45%; inhibition at 1 µM ([3]; compounds of Table 4): 100%; inhibition at 1 µM (kinase domain of PDGFRβ; compounds of Table 4): 24%
